Holding throughout (type): biochemical
One test concerns the target T1, PI3Kalpha (Homo sapiens, UniProt P42336).
T1 construct: His (N); host or cells: SF9 insect cells (baculovirus)
The test is described as follows: Human PI3Kα enzyme assay (HTRF). Conditions: for inhibition at 1.11 µM: read-out: PI3Kalpha % inh; for PI3Kalpha % inh: at 1.11 μM. From the text:
(§1) The catalytic subunits of PI3Ks are cloned into either pDEST8(p110 alpha) or pDEST10(p110beta, p110delta, and p110gamma) as N-terminal His tagged fusion proteins using the Gateway system (Invitrogen, catalog#11804-010 for pDEST8 and 11806-015 for pDEST10). The sequences are verified before recombinant protein expression using the Baculovirus Expression System with Gateway® Technology. The accession numbers for the subunits are as follows:
(§2) The regulatory subunits of PI3Ks are cloned into pDEST8 as un-tagged protein using the Gateway system (Catalog#11804-010). The sequences are verified before recombinant protein expression using the Baculovirus Expression System with Gateway® Technology. The accession numbers for the subunits are as follows:
(§3) For expression of the p110 complexes, the p85 (MOI of 4) is co-infected with p110 alpha, beta, and delta respectively (1MOI) in SF9 cells and harvested at 60 hours post co-infection. P110 gamma was infected at 1 MOI and harvested at 60 hours post infection.
(§4) For purification, PI3Ks are purified by Ni-NTA Agarose (Qiagen #30250) followed by Mono Q 10/100 GL (Ge Healthcare #17-5167-01). VPS34 is purified by Glutathione Sepharose 4 Fast Flow (GE Healthcare #17-5132-03) followed by HiTrap Q (GE Healthcare #17-1153-01).
1) Human PI3Kα enzyme assay method
(§5) 0.5 uL compounds in DMSO are added to wells of a 384 well microtitre plate (Corning 3575). At room temperature: 10 ul PI3K reaction buffer (50 mM Hepes, 5 mM DTT, 150 mM NaCl, 10 mM beta-glycerophosphate, 10 mM MgCl2, 0.25 mM sodium cholate and 0.001% CHAPS, pH 7.00) containing ATP (25 uM, Promega) is added followed immediately by 10 ul PI3K reaction buffer containing di-C8 PI(4,5)P2 (3.5 uM, CellSignals) and PI3Kalpha (0.4875 nM, Millennium Protein Sciences Group) and the mixture is incubated with shaking at room temperature for 30 minutes. Then 5 ul PI3K stop mix (50 mM Hepes, 5 mM DTT, 150 mM NaCl, 0.01% Tween-20, 15 mM EDTA and 25 nM biotin-PI(3,4,5)P3 (Echelon) is added to quench the reaction followed immediately by addition of 5 ul HTRF detection mix (50 mM Hepes, 5 mM DTT, 150 mM NaCl, 0.01% Tween-20, 40 mM KF, 10 nM GST:GRP-1 PH domain (Millennium Protein Sciences Group), 15 nM Streptavidin-XL (CisBio) and 0.375 nM anti-GST Eu++ antibody (CisBio) at pH 7.00). The plates are then incubated for 1 hour at room temperature with shaking and then read on a BMG PheraStar Plus reader.

The target of the next test is T2, PI3Kbeta (Homo sapiens, UniProt P42338).
T2 construct: His (N); host or cells: SF9 insect cells (baculovirus)
T2 sequence (P42338 whole entry): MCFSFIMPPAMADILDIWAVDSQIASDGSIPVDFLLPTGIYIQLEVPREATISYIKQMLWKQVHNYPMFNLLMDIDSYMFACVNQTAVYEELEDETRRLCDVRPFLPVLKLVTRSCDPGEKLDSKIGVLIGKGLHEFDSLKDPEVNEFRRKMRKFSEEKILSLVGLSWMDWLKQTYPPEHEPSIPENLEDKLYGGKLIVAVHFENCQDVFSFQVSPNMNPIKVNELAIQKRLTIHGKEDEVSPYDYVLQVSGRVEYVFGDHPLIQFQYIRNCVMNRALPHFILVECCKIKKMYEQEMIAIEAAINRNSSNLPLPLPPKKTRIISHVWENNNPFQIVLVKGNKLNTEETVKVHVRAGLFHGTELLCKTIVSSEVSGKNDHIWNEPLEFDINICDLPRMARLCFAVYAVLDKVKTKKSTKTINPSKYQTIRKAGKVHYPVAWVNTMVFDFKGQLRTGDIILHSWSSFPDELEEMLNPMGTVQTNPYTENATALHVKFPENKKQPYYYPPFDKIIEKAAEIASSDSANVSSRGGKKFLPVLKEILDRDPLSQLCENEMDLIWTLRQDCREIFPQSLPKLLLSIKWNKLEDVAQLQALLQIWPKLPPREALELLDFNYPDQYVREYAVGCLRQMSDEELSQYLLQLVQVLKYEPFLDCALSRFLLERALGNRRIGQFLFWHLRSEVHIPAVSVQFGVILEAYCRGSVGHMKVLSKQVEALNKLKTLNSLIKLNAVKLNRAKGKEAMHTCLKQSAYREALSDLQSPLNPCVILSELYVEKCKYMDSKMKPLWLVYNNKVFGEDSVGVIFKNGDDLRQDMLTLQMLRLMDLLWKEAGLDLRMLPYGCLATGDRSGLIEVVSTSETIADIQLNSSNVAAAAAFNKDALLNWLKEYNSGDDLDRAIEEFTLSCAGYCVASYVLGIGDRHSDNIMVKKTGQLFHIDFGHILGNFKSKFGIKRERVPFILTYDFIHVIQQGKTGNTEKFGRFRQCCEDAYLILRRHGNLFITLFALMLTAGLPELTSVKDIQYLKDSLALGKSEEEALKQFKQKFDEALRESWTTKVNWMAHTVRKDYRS
T2 sequence (P27986 whole entry partner): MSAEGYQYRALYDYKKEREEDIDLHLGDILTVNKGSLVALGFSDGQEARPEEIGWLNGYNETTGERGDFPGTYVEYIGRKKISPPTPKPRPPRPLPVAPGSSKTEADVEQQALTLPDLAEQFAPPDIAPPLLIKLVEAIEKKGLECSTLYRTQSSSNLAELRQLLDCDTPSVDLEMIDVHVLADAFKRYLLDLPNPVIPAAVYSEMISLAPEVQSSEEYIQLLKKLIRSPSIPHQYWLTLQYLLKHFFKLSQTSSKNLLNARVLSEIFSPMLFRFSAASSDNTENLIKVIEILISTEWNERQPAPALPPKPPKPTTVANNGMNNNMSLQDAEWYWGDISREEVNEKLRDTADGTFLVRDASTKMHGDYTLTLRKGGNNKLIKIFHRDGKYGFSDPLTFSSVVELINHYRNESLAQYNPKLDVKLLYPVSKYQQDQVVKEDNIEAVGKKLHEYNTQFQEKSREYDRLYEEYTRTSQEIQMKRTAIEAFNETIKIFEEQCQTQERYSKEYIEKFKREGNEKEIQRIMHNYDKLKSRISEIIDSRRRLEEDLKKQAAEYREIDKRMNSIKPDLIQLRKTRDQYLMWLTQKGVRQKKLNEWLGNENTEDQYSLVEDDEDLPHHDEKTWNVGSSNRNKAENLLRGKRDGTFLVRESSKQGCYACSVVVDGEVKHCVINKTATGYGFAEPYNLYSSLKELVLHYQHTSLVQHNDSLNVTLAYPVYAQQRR
The test is described as follows: Human PI3K beta enzyme assay (HTRF, as for PI3K alpha). The conditions noted are these: at 1.11 μM; for inhibition at 1.11 µM: read-out: PI3Kbeta % inh.
Source text: as §1, §2, §3, §4, §5
(§6) 2) Human PI3K beta, delta and gamma isoforms are tested using the procedure described for PI3K alpha above but with the following changes: PI3K beta (5.25 nM), PI3K delta (0.75 nM) and PI3K gamma (5 nM). All isoforms supplied by Millennium Protein Science Group.

A further test concerns the target T3, PI3Kgamma (Homo sapiens, UniProt P48736).
T3 construct: His (N); host or cells: SF9 insect cells (baculovirus)
The test is described as follows: Human PI3K gamma enzyme assay (HTRF, as for PI3K alpha). The conditions noted are these: read-out: PI3Kgamma % inh.
Source text: as §1, §2, §3, §4, §5, §6

A further test deals with T4, PI3Kdelta (Homo sapiens, UniProt O00329).
T4 construct: His (N); host or cells: SF9 insect cells (baculovirus)
T4 sequence (O00329 whole entry): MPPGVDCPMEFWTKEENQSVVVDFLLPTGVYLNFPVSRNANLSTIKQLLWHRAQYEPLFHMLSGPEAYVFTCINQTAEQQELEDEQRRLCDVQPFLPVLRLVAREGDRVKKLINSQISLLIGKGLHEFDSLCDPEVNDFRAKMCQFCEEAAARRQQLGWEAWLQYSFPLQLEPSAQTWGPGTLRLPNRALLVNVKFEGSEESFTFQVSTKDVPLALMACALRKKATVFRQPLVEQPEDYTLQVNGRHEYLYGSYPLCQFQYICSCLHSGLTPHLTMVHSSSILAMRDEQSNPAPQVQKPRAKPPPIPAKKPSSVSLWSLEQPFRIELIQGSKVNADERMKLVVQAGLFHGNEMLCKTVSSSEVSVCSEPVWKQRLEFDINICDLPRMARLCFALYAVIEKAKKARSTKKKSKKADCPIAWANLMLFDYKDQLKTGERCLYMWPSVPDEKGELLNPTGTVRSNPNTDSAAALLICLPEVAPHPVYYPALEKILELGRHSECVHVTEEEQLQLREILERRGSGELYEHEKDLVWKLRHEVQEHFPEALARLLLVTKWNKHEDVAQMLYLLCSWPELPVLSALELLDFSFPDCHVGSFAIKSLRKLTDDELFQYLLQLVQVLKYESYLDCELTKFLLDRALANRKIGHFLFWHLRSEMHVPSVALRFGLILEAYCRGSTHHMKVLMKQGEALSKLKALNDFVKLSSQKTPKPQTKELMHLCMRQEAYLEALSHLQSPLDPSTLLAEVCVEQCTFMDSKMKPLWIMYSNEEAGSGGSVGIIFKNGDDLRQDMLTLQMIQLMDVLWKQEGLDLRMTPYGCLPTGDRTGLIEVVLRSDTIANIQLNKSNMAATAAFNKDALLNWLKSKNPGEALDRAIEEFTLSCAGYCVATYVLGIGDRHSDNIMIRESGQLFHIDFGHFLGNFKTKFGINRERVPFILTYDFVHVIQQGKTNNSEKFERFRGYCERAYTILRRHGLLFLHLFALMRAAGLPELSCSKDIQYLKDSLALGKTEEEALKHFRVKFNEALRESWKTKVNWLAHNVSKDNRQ
T4 sequence (P27986 whole entry partner): as the sequence (P27986 whole entry partner) above
The test is described as follows: Human PI3K delta enzyme assay (HTRF, as for PI3K alpha). The conditions noted are these: read-out: PI3Kdelta % inh.
Source text: as §1, §2, §3, §4, §5, §6

T1 sequence (P42336 whole entry): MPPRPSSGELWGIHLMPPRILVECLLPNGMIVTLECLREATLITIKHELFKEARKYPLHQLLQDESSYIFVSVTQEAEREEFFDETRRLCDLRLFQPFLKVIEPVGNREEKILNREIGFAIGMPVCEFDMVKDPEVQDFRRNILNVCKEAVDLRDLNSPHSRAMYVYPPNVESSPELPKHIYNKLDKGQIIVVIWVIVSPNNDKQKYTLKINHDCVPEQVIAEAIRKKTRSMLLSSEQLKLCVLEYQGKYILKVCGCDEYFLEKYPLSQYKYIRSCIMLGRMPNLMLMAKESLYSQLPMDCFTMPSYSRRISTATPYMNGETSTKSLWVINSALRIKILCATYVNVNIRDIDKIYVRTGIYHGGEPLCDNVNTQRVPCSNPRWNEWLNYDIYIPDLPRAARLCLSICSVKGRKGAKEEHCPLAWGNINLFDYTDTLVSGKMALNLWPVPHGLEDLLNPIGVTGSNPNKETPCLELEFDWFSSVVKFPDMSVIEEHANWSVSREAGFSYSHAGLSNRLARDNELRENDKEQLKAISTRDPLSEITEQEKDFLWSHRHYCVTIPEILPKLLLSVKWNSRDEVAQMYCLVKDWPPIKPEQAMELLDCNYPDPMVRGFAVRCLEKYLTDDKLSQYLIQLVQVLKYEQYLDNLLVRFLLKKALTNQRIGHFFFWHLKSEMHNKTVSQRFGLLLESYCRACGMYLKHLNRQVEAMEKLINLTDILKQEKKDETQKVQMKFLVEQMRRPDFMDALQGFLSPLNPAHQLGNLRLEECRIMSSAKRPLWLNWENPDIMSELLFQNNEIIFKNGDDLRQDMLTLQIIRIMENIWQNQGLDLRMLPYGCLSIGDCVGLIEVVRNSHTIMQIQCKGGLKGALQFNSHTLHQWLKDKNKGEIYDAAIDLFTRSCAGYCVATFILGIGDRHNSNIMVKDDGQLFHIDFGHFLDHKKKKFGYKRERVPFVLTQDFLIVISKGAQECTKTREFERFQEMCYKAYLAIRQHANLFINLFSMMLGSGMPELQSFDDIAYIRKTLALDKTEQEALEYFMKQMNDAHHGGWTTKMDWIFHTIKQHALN
T1 sequence (P27986 whole entry partner): as the sequence (P27986 whole entry partner) above
T3 sequence (P48736 whole entry): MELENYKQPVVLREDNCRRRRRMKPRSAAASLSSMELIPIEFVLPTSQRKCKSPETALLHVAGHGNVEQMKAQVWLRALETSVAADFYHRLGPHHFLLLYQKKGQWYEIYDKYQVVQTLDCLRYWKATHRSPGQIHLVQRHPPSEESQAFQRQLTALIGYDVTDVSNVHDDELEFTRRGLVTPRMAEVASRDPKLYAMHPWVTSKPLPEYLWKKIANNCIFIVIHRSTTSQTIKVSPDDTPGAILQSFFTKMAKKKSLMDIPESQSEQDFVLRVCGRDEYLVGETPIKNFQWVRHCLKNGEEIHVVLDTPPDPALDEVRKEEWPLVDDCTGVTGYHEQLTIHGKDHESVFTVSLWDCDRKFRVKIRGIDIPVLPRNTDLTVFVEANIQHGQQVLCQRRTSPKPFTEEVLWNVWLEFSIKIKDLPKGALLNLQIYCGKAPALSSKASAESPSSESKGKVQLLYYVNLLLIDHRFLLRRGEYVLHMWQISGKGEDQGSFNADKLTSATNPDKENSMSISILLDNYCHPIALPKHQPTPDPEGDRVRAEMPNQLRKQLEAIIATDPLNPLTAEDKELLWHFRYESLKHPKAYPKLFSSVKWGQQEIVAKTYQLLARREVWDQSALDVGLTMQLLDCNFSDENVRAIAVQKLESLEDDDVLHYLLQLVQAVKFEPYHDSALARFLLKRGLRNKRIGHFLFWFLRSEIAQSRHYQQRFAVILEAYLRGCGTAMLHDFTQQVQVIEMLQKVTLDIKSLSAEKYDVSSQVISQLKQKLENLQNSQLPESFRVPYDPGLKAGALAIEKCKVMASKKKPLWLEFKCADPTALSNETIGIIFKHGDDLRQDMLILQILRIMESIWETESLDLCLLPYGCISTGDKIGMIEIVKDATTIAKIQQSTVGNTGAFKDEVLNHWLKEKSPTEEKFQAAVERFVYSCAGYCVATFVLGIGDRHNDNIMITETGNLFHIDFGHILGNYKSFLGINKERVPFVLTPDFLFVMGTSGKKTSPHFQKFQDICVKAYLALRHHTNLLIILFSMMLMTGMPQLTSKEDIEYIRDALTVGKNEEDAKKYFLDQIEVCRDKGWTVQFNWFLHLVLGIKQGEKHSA

`NC(=O)[C@@H]1NC(=O)c2sc(N3CCOCC3)cc2[C@H]1c1ccc(Cl)c(Cl)c1` (relative stereo) [Compound 146, rel-(4R,5R)-4-(3,4-dichlorophenyl)-2-(morpholin-4-yl)-7-oxo-4,5,6,7-tetrahydrothieno[2,3-c]pyridine-5-carboxamide]: the inhibition at 1.11 µM on PI3Kalpha is 40.4%; at PI3Kbeta, 107%; at PI3Kgamma, 50.7%; on PI3Kdelta, 99.7%.

As for `O=C1N[C@@H](CO)[C@H](c2ccc(Cl)c(Cl)c2)c2cc(N3CCOCC3)sc21` (relative stereo) [Compound 192, rel-(4R,5R)-4-(3,4-dichlorophenyl)-5-(hydroxymethyl)-2-(morpholin-4-yl)-5,6-dihydrothieno[2,3-c]pyridin-7(4H)-one], the inhibition at 1.11 µM at PI3Kalpha was 39.6%; on PI3Kbeta, 106%; at PI3Kgamma, 52.9%; on PI3Kdelta, 105%.

Consider `O=C1CC(c2ccc3ccccc3c2)c2cc(N3CCOCC3)sc21` (stereo not drawn) [Compound 119], for which the inhibition at 1.11 µM amounted to 42.4% at PI3Kalpha, 107% at PI3Kbeta, 60.3% at PI3Kgamma and 99.8% at PI3Kdelta.

Regarding `C=CCN1C(=O)c2sc(N3CCOCC3)cc2C(c2ccc(Cl)c(Cl)c2)C1C(=O)OC` (stereo not drawn) [Compound 166, methyl 6-allyl-4-(3,4-dichlorophenyl)-2-(morpholin-4-yl)-7-oxo-4,5,6,7-tetrahydrothieno[2,3-c]pyridine-5-carboxylate], the inhibition at 1.11 µM on PI3Kalpha turned out to be 7.59%; at PI3Kbeta, 69.2%.

As to `NC(=O)c1cc(C2CCNC(=O)c3sc(N4CCOCC4)nc32)ccc1Cl` (stereo not drawn) [Compound 167], the inhibition at 1.11 µM at PI3Kalpha stood at 5.27%; on PI3Kbeta, 81.2%.

Consider `CNC(=O)c1[nH]c(=O)c2sc(N3CCOCC3)cc2c1-c1ccc(Cl)cc1` [Compound 168], for which the inhibition at 1.11 µM on PI3Kalpha is 74.5%; at PI3Kbeta, 117%.

For the compound `O=C1OC2(CCNC(=O)c3sc(N4CCOCC4)nc32)c2ccc(Cl)cc21` (stereo not drawn) [Compound 172, 5-chloro-2′-(morpholin-4-yl)-6′,7′-dihydro-3H-spiro[2-benzofuran-1,8′-[1,3]thiazolo[5,4-c]azepine]-3,4′(5′H)-dione], the inhibition at 1.11 µM amounted to 16.1% on PI3Kalpha and 49.3% on PI3Kbeta.

Take `COC(=O)c1cc(C2CCNC(=O)c3sc(N4CCOCC4)nc32)ccc1Cl` (stereo not drawn) [Compound 174, methyl 2-chloro-5-[2-(morpholin-4-yl)-4-oxo-5,6,7,8-tetrahydro-4H-[1,3]thiazolo[5,4-c]azepin-8-yl]benzoate]: the results for the inhibition at 1.11 µM at PI3Kalpha and on PI3Kbeta were 4.56% and 82.5%, respectively.

Take `COCCNC(=O)[C@@H]1NC(=O)c2sc(N3CCOCC3)cc2[C@H]1c1ccc(Cl)cc1` [Compound 177]: the inhibition at 1.11 µM on PI3Kalpha is 29.6%; at PI3Kbeta it was 58.5%.

Consider `Cc1cc(-c2nc3c(s2)C(=O)NCC3c2ccc3ccccc3c2)ccn1` (stereo not drawn) [Compound 179], for which the inhibition at 1.11 µM turned out to be 21.6% at PI3Kalpha and 107% on PI3Kbeta.

Consider `COC(=O)c1[nH]c(=O)c2sc(N3CCOCC3)cc2c1-c1ccc(Cl)c(Cl)c1` [Compound 184, methyl 4-(3,4-dichlorophenyl)-2-(morpholin-4-yl)-7-oxo-6,7-dihydrothieno[2,3-c]pyridine-5-carboxylate], for which the inhibition at 1.11 µM at PI3Kalpha came out at 6.62%; at PI3Kbeta it was 77.5%.

As for `N#Cc1c(N2CCOCC2)sc2c1C(c1ccc(Cl)c(Cl)c1)NC2=O` (stereo not drawn) [Compound 187], the inhibition at 1.11 µM on PI3Kalpha came to 38.4%; at PI3Kbeta, 104%.

For `O=C1NCC(c2ccc3ccncc3c2)c2nc(N3CCOCC3)sc21` (stereo not drawn) [Compound 189], the inhibition at 1.11 µM on PI3Kalpha worked out at 25.9%; on PI3Kbeta it was 116%.

For `Cc1cc(C2CNC(=O)c3sc(N4CCOCC4)cc32)ccc1Cl` (stereo not drawn) [Compound 194], the inhibition at 1.11 µM on PI3Kalpha was determined as 38.6%; at PI3Kbeta it was 113%.

With `O=C1NCC=C(c2ccc3ccncc3c2)c2nc(N3CCOCC3)sc21` [Compound 195], the inhibition at 1.11 µM on PI3Kalpha amounted to 16.5%; on PI3Kbeta it was 62.5%.

As to `C=CCC1(C(=O)O)NC(=O)c2sc(N3CCOCC3)cc2C1c1ccc(Cl)c(Cl)c1` (stereo not drawn) [Compound 196, 5-allyl-4-(3,4-dichlorophenyl)-2-(morpholin-4-yl)-7-oxo-4,5,6,7-tetrahydrothieno[2,3-c]pyridine-5-carboxylic acid], the inhibition at 1.11 µM on PI3Kalpha came out at 13.7%; on PI3Kbeta, 84.3%.

Compound `N#Cc1c(N2CCOCC2)sc2c1C(c1ccc(Cl)c(Cl)c1)CCNC2=O` (stereo not drawn) [Compound 199] returned a PI3Kalpha % inh at PI3Kalpha of 65.98%. On PI3Kbeta, this compound yielded a PI3Kbeta % inh of 115.55%.

Compound `O=C1N[C@@H](C(=O)NCCCO)[C@H](c2ccc(Cl)cc2)c2cc(N3CCOCC3)sc21` [Compound 200] yielded a PI3Kalpha % inh on PI3Kalpha of 48.20%. The PI3Kbeta % inh at PI3Kbeta is 53.94%.

Regarding `O=C1NCCC(c2ccc(Cl)cc2)c2cc(N3CCOCC3)sc21` (stereo not drawn) [Compound 201, 4-(4-chlorophenyl)-2-(morpholin-4-yl)-4,5,6,7-tetrahydro-8H-thieno[2,3-c]azepin-8-one], on PI3Kalpha, the inhibition at 1.11 µM worked out at 16.7%. At PI3Kbeta, this compound displayed a PI3Kbeta % inh of 79.38%.

On to `O=C1N[C@@H](CO)CC(c2ccc3ccccc3c2)c2nc(N3CCOCC3)sc21` (stereo partly drawn) [Compound 202], for which the PI3Kalpha % inh on PI3Kalpha came out at 88.75%. On PI3Kbeta, the PI3Kbeta % inh is 113.55%.

Compound `CCNC(=O)[C@@H]1NC(=O)c2sc(N3CCOCC3)cc2[C@H]1c1ccc(Cl)cc1` [Compound 203] displayed a PI3Kalpha % inh on PI3Kalpha of 40.46%. Also, the PI3Kbeta % inh at PI3Kbeta is listed as 66.37%.

`O=C1N[C@@H](C(=O)NCCO)[C@H](c2ccc(Cl)cc2)c2cc(N3CCOCC3)sc21` [Compound 204] returned a PI3Kalpha % inh at PI3Kalpha of 51.34%. This compound also came in with a PI3Kbeta % inh at PI3Kbeta of 60.14%.

On PI3Kalpha, `Cc1cc(C2CNC(=O)c3sc(N4CCOCC4)cc32)ccc1Cl` (stereo not drawn) [Compound 205] had a PI3Kalpha % inh of 28.04%. Further, on PI3Kbeta, the PI3Kbeta % inh stood at 96.83%.

Consider `CNC(=O)[C@@H]1NC(=O)c2sc(-c3ccncc3)cc2[C@H]1c1ccc(Cl)cc1` [Compound 206], for which the inhibition at 1.11 µM is 41.8% on PI3Kalpha and 58.5% on PI3Kbeta.

Consider `CNC(=O)[C@@H]1NC(=O)c2sc(C3=CCOCC3)cc2[C@H]1c1ccc(Cl)cc1` [Compound 207], for which, on PI3Kalpha, the inhibition at 1.11 µM came out at 42.9%. For the same compound, the PI3Kbeta % inh on PI3Kbeta was determined as 62.94%.

Consider `O=C1NCC(c2ccc(Cl)c(Cl)c2)c2cc(N3CCOCC3)sc21` (stereo not drawn) [Compound 208], for which the inhibition at 1.11 µM on PI3Kalpha is 18.4%; on PI3Kbeta it was 96.8%.

As to `O=C1NCC(c2ccc(Cl)cc2)c2cc(N3CCOCC3)sc21` (stereo not drawn) [Compound 211], on PI3Kalpha, the inhibition at 1.11 µM is 20.5%. For the same compound, on PI3Kbeta, the PI3Kbeta % inh is 62.33%.

On to `CNC(=O)[C@@H]1NC(=O)c2sc(N3CCOCC3)cc2[C@H]1c1ccc(Cl)cc1` [Compound 212], for which the PI3Kalpha % inh on PI3Kalpha came out at 54.25%. The compound further gave a PI3Kbeta % inh at PI3Kbeta of 65.59%.

In the case of `O=C(O)CN1CC(c2ccc(Cl)cc2)c2cc(N3CCOCC3)sc2C1=O` (stereo not drawn) [Compound 213, 2-(4-(4-chlorophenyl)-2-morpholino-7-oxo-4,5-dihydrothieno[2,3-c]pyridin-6(7H)-yl)acetic acid], the inhibition at 1.11 µM was found to be 5.63% at PI3Kalpha and 99.3% at PI3Kbeta.

For `NC(=O)CN1CC(c2ccc(Cl)cc2)c2cc(N3CCOCC3)sc2C1=O` (stereo not drawn) [Compound 214, 2-(4-(4-chlorophenyl)-2-morpholino-7-oxo-4,5-dihydrothieno[2,3-c]pyridin-6(7H)-yl)acetamide], the inhibition at 1.11 µM was determined as 5.13% at PI3Kalpha and 110% on PI3Kbeta.
